Test results: patent publication US5763408A, “Amino acid derivatives and application thereof” (Fuji Photo Film Co., Ltd., priority 1992, dated 1998)

What was measured:
[1] = test system: PRP (polyplatelet rich plasma); assay: Platelet aggregation inhibition activity (ADP-induced aggregation in PRP); assay type: cell-based; conditions: for Platelet aggregation inhibition rate (%): test compound 1 mg/ml in PRP, ADP as inducer, five minutes later
Description: Platelet aggregation inhibition activities of Compounds 1, 2, 3, 4, 5, 6, 7 and 15 were examined.
A test compound was added to PRP (polyplatelet rich plasma, 3×10^8 cells/ml) so that the plasma contained the compound at a concentration of 1 mg/ml and the plasma was added with 10 μl of ADP as an aggregation inducing substance. Five minutes later, aggregation ratio was determined by a chronologic whole blood aggregation ability measuring apparatus to calculate platelet aggregation inhibition ratio.

[2] = test system: B16-BL6 melanoma cells; assay: Experimental metastasis test of B16-BL6 melanoma cells in lung; assay type: in vivo, C57BL/6 female mice; conditions: day 14
Description: Tumor metastasis inhibition activities of the compounds of the present invention were examined.
(§1) A test compound and B16-BL6 melanoma cells, which have strong metastatic property, were mixed in PBS. 0.2 ml of the mixture was intravenously injected to each of C57BL/6 female mice, of which groups each consisted of 5 mice. The mixture injected (0.2 ml) contained 5×10^4 B16-BL6 cells. On the 14th day from the administration, number of melanoma cell colonies was determined and compared with that of control mice, which were administered with PBS.

[3] = test system: L5178Y-ML25 T-lymphoma cells; assay: Experimental metastasis of L5178Y-ML25 T-lymphoma cells (weights of livers and spleens); assay type: in vivo, CDF1 mice; conditions: day 14, in g (unit assumed); for Weight of spleen (Mean ± SD): PBS 0.23 ± 0.03, no lymphoma cell 0.12 ± 0.02; for Weight of liver (Mean ± SD): PBS 4.18 ± 0.30, no lymphoma cell 1.36 ± 0.02
Description: A test compound and L5178Y-ML25 T-lymphoma cells were mixed in PBS. 0.2 ml of the mixture was intravenously injected to each of CDF1 mice, of which groups each consisted of 5 mice. The mixture injected (0.2 ml) contained 4×10^4 L5178Y-ML25 T-lymphoma cells. On the 14th day from the administration, weights of livers and spleens of mice were determined and compared with those of control mice, which were administered with PBS.

[4] = test system: colon 26/M3.1 cells; assay: Experimental metastasis test of colon 26/M3.1 cells in lung; assay type: in vivo, C57BL/6 female mice; conditions: Table 13, 1000 μg/mouse, day 14, PBS control 148 ± 12
Description: as §1, with “colon 26/M3.1” for “B16-BL6 melanoma”, “4×10^4 colon 26/M3.1” for “5×10^4 B16-BL6”, “of” for “of melanoma cell”, “colonies in lung” for “colonies”
A segment peptide of fibronectin, Gly-Arg-Gly-Asp-Ser (GRGDS), of which tumour metastasis inhibition activities have been known, was used as a comparative sample.

[5] = Table 4, 500 μg/mouse, PBS control 96 ± 14
[6] = Table 5, 1000 μg/mouse, PBS control 118 ± 15
[7] = Table 6, 500 μg/mouse, PBS control 103 ± 30
[8] = Table 7, 500 μg/mouse, PBS control 101 ± 28
[9] = Table 11, 500 μg/mouse, PBS control 114 ± 28

SMILES | Platelet aggregation inhibition rate (%) [1] [%] | Number of colonies (Mean ± SD) [2, 5] | Number of colonies (Mean ± SD) [2, 6] | Number of colonies (Mean ± SD) [2, 7] | Number of colonies (Mean ± SD) [2, 8] | Number of colonies (Mean ± SD) [2, 9] | other results
N=C(N)NCCC[C@H](NC(=O)CC(=O)N[C@@H](CC(=O)O)C(=O)O)C(=O)O [Compound 1] | 57 | 13 ± 6 | 25 ± 8 | 63 ± 23 | 19 ± 11 | – | IC50 ([1]; platelet aggregation, PRP, ADP): 2400 µM; Number of colonies (Mean ± SD) ([2]; Table 2, 1000 μg/mouse i.v. mixed with cells, PBS control 141 ± 16): 46 ± 10; Weight of spleen (Mean ± SD) ([3]; 100 μg/mouse): 0.18 ± 0.02; Weight of liver (Mean ± SD) ([3]; 100 μg/mouse): 3.09 ± 0.78; Weight of spleen (Mean ± SD) ([3]; 500 μg/mouse): 0.20 ± 0.02; Weight of liver (Mean ± SD) ([3]; 500 μg/mouse): 2.98 ± 0.29; Weight of spleen (Mean ± SD) ([3]; 1000 μg/mouse): 0.14 ± 0.01; Weight of liver (Mean ± SD) ([3]; 1000 μg/mouse): 1.84 ± 0.36; Number of colonies (Mean ± SD) [4]: 31 ± 26
N=C(N)NCCC[C@@H](NC(=O)CC(=O)N[C@@H](CC(=O)O)C(=O)O)C(=O)O [Compound 2] | 53 | 23 ± 9 | – | 72 ± 15 | 38 ± 16 | – | Number of colonies (Mean ± SD) ([2]; Table 3, 500 μg/mouse, PBS control 81 ± 23): 39 ± 13; Number of colonies (Mean ± SD) ([2]; Table 3, 1000 μg/mouse, PBS control 81 ± 23): 3 ± 2
CNC(=O)C(CC(=O)O)NC(=O)CC(=O)NC(CCCNC(=N)N)C(=O)O (stereo not shown) [Compound 8] | – | 55 ± 12 | 24 ± 9 | – | – | – | –
CNC(=O)C(CCCNC(=N)N)NC(=O)CC(=O)NC(CC(=O)O)C(=O)O (stereo not shown) [Compound 12] | – | 58 ± 20 | 19 ± 6 | – | – | – | –
CNC(=O)C(CCCNC(=N)N)NC(=O)CC(=O)NC(CC(=O)O)C(=O)NC (stereo not shown) [Compound 14] | – | 94 ± 26 | 69 ± 7 | – | – | – | –
N=C(N)NCCC[C@H](NC(=O)CC(=O)N[C@@H](CC(=O)O)C(=O)N[C@@H](CO)C(=O)O)C(=O)O [Compound 15] | 47 | – | – | 39 ± 17 | 32 ± 8 | – | –
N=C(N)NCCCC(NC(=O)CC(=O)NC(CC(=O)O)C(=O)O)C(=O)NCC(=O)O (stereo not shown) [Compound 19] | – | – | – | – | – | – | Number of colonies (Mean ± SD) ([2]; Table 8, 1000 μg/mouse, PBS control 168 ± 28): 32 ± 8; Number of colonies (Mean ± SD) ([2]; Table 9, 1000 μg/mouse, PBS control 168 ± 28): 32 ± 8
N=C(N)NCCCC(NC(=O)C(=O)NC(CC(=O)O)C(=O)O)C(=O)O (stereo not shown) [Compound 33] | – | – | – | – | – | 51 ± 18 | –
N=C(N)NCCCC(NCC(=O)NC(CC(=O)O)C(=O)O)C(=O)O (stereo not shown) [Compound 34] | – | – | – | – | – | 51 ± 19 | –
N=C(N)NCCCC(NC(=O)CNC(CC(=O)O)C(=O)O)C(=O)O (stereo not shown) [Compound 35] | – | – | – | – | – | 52 ± 14 | –
